≈ marks a conversion by molar mass, not a printed value. Where two headings read alike, the source gives them in different places.
How the values were obtained:
spheroids = assay: Spheroid combination with cisplatin or daunorubicin, clonogenic survival; type: cell-based, human; conditions: 2 h exposure
Experimental: The phosphoramidate alkylator prodrug was combined simultaneously with cisplatin or daunorubicin and the spreroids exposed for 2 h to the combination, followed by measurement of clonogenic survival.

HT29 xenograft = assay: HT-29 xenograft mouse model with CDDP (Example 52); type: in vivo; conditions: Group 2; tumor volumes at day 25; vs vehicle group; CDDP in saline IV alone
Experimental: Female CB17/SCID mice (purchased from Charles River, Cambridge, Mass.), 7-8 weeks of age, were allowed to acclimatize for at least three days, and handled under pathogen-free conditions. Human colon carcinoma cell line HT29 was obtained from the American Type Culture Collection. The cell lines were cultured and harvested as described in Example 47 and inoculated at 3×10^6 cells/animal in the peritoneal subcutaneous space. When the tumors grew to an average volume of 100 mm^3 (day 8), each group of mice (ten per group) was administered, for three weeks, as tabulated in the table below: Compound 25 in saline, administration route—i.p., administrated 2 h before CDDP on the days the combination therapy is scheduled and CDDP (in saline, IV).
The body weight and tumor volume were determined as described in Example 47. Data are based on tumor volumes at day 25 when tumors in the vehicle group had reached sufficient size to require that the mice be sacrificed.

[1] = tested on: H460 lung carcinoma spheroids; assay: Spheroid model, clonogenic survival; conditions: read-out: IC90 H460 Spheroid 10% O2
[2] = tested on: H460 cells exposed as monolayers; assay: Clonogenic survival of monolayer cells (Example 35)
NCI-H460 cells [3] = assay: Antiproliferation assay - oxygen dependence; type: cell-based, human
Excerpt: . […] The calculated IC50 values (μM) are tabulated in Table Y1 (H460 cells) or Table Y2 (HT29 cells) below.

[4] = type: physicochemical; conditions: glassy carbon, Ag/AgCl reference
in vivo = conditions: 50 mg/kg
[5] = Plasma stability (Table 2B); conditions: 30 min
HT29 [6] = assay: Clonogenic assay, hypoxia vs normoxia (Table 1B); conditions: for IC90: Homo sapiens
NCI-H460 cells [7] = assay: Antiproliferation assay (Alamar Blue), anoxia vs air
HT29 cells = assay: as above; conditions: Homo sapiens, HT-29, 2 h
MES-SA/Dx5 cells = assay: as above; conditions: Homo sapiens, MES-SA/Dx5, 2 h
H460 cell line = assay: Anti-proliferation assay, hypoxia vs normoxia (Table 1A); conditions: for IC50: Homo sapiens; for HCR P: ratio of IC50 in normoxia and hypoxia
HT29 [8] = assay: Anti-proliferation assay, hypoxia vs normoxia (Table 1B); conditions: for IC50: Homo sapiens
DX-5 = assay: as above
human H460 cells = assay: Clonogenic survival assay, hypoxia vs normoxia (Table 1A); conditions: for IC90: Homo sapiens; for HCR C: ratio of IC90 in normoxia and hypoxia
[9] = Pharmacokinetics after intravenous or intraperitoneal administration in mice (Table 2B); conditions: plasma, 50 mg/kg
[10] = Solubility in saline at room temperature; type: physicochemical; conditions: saline or isotonic
[11] = tested on: mouse (MLM) liver microsomal proteins; type: in vitro ADME; conditions: Table 2B
NCI-H460 cells [12] = assay: Clonogenic assay - oxygen dependence; conditions: Homo sapiens
[13] = 25 mg/kg i.p., 10% PEG, CD-1 mice
[14] = Homo sapiens, NCI-H460, read-out: IC50 in H460 cells, 0.6% O2
[15] = Homo sapiens, NCI-H460, read-out: IC50 in H460 cells, 1% O2
[16] = Homo sapiens, NCI-H460, read-out: IC50 in H460 cells, Air
[17] = Homo sapiens, NCI-H460, read-out: IC50 in H460 cells, N2
[18] = HT-29, read-out: HT29 C H (clonogenic IC90, hypoxia)
[19] = Homo sapiens, NCI-H460, 2 h, read-out: IC50 H460 Air, air, 2 h exposure
[20] = Homo sapiens, NCI-H460, 2 h, read-out: IC50 H460 Anoxia, anoxia, 2 h exposure
[21] = NCI-H460, read-out: Hypoxia P (proliferation IC50)
[22] = NCI-H460, read-out: Normoxia P (proliferation IC50)
[23] = HT-29, read-out: HT29 P H (proliferation IC50, hypoxia)
[24] = NCI-H460, read-out: Hypoxia C (clonogenic IC90)
[25] = NCI-H460, read-out: Normoxia C (clonogenic IC90)
[26] = CD-1, Balb/c for Compound 1, mouse, ip
[27] = CD-1, Balb/c for Compound 1, mouse, iv
[28] = Homo sapiens, NCI-H460, read-out: IC50 in H460 cells, 0.1% O2

## N.N.[Cl][Pt][Cl] [Cisplatin, cis-Diaminedichloroplatinum (II), reference compound]
spheroids; read-out: IC50 (μM), spheroids, cisplatin combination experiment
  IC50: 14 µM
HT29 xenograft
  % Inhibition vs Group 1: 24.2%
[1]; 2 h exposure, 10% O2
  IC90: 8 µM
[2]; read-out: IC90 H460 Monolayer 0.6% O2, 2 h exposure, 0.6% O2
  IC90: 7.7 µM
[2]; read-out: IC90 H460 Monolayer Air, 2 h exposure, Air
  IC90: 7.3 µM
[2]; read-out: IC90 H460 Monolayer N2, 2 h exposure, N2
  IC90: 4.2 µM

## Cn1c(COP(N)(=O)N(CCCl)CCCl)cnc1[N+](=O)[O-] (stereo not shown) [Compound 1]
NCI-H460 cells [3]; Homo sapiens, NCI-H460, read-out: IC50 in H460 cells, 0.3% O2
  IC50: 10 µM
NCI-H460 cells [3]; [14]
  IC50: 7 µM
NCI-H460 cells [3]; [15]
  IC50: 50 µM
NCI-H460 cells [3]; [16]
  IC50: 100 µM
NCI-H460 cells [3]; [17]
  IC50: 0.3 µM
[4]; scan rate 100 mV/sec
  Reduction Potentials, 100 mV/sec: −596 mV
[4]; scan rate 10,000 mV/sec
  Reduction Potentials, 10,000 mV/sec: −638 mV
In vivo; Balb/c, mouse, ip
  Cmax: 29900 ng/mL
  Tmax: 15 min
In vivo; Balb/c, mouse, iv
  AUC: 12500 ng·h/mL
  Cmax: 35000 ng/mL
  Tmax: 5 min
  half-life: 15.3 min
[5]
  Plasma stability (% at 30 min): 100%
[1]; Homo sapiens, NCI-H460, 2 h
  IC90: > 100 µM
HT29 [6]
  HT29 HCR C: >100
HT29 [6]; [18]
  IC90: 400 nM
HT29 [6]; HT-29, read-out: HT29 C N (clonogenic IC90, normoxic)
  IC90: 100000 nM
[2]; Homo sapiens, NCI-H460, 2 h, read-out: IC90 H460 Monolayer Air
  IC90: 75 µM
[2]; Homo sapiens, NCI-H460, 2 h, read-out: IC90 H460 Monolayer N2
  IC90: 0.35 µM
NCI-H460 cells [7]; [19]
  IC50: 72 µM
NCI-H460 cells [7]; [20]
  IC50: 0.4 µM
HT29 cells; read-out: IC50 HT29 Air
  IC50: > 100 µM
HT29 cells; read-out: IC50 HT29 Anoxia
  IC50: 50 µM
MES-SA/Dx5 cells; read-out: IC50 MES-SA/Dx5 Air
  IC50: > 100000 nM
MES-SA/Dx5 cells; read-out: IC50 MES-SA/Dx5 Anoxia
  IC50: 1000 nM
H460 cell line; [21]
  IC50: 0.4 µM
H460 cell line; [22]
  IC50: 72 µM
H460 cell line
  HCR P: 180
HT29 [8]
  HT29 HCR P: >2
HT29 [8]; [23]
  IC50: 50 µM
HT29 [8]; HT-29, read-out: HT29 P N (proliferation IC50, normoxic)
  IC50: 100 µM
DX-5
  DX-5 HCR: >100
DX-5; read-out: DX-5 P H (proliferation IC50, hypoxia)
  IC50: 1000 nM
DX-5; read-out: DX-5 P N (proliferation IC50, normoxic)
  IC50: > 100000 nM
Human H460 cells; [24]
  IC90: 0.35 µM
Human H460 cells; [25]
  IC90: 75 µM
Human H460 cells
  HCR C: 200
[9]; [26]
  Cmax: 29900 ng/mL
[9]; [27]
  AUC: 12500 ng·h/mL
  Cmax: 35000 ng/mL
  Vd: 1.48 L/kg
  half-life: 15.6 min
[9]; mouse, ip
  half-life: 15 min

## Cn1c([N+](=O)[O-])cnc1COP(=O)(NCCCl)NCCCl [Compound 10]
[10]
  solubility: 10000 µg/mL (≈ 27.8 mM)
NCI-H460 cells [3]; [28]
  IC50: > 100 µM
NCI-H460 cells [3]; [14]
  IC50: > 100 µM
NCI-H460 cells [3]; [15]
  IC50: > 100 µM
NCI-H460 cells [3]; Homo sapiens, NCI-H460; read-out: IC50 in H460 cells, Air
  IC50: > 100 µM
NCI-H460 cells [3]; Homo sapiens, NCI-H460; read-out: IC50 in H460 cells, N2
  IC50: > 100 µM
NCI-H460 cells [7]; [19]
  IC50: > 100 µM
NCI-H460 cells [7]; [20]
  IC50: ≥ 100 µM
H460 cell line; [21]
  IC50: 100 µM
H460 cell line; [22]
  IC50: > 100 µM
H460 cell line
  HCR P: >1

## O=[N+]([O-])c1ccc(COP(=O)(NCCCl)NCCCl)o1 [Compound 23]
NCI-H460 cells [3]; [28]
  IC50: 5 µM
NCI-H460 cells [3]; [14]
  IC50: 6 µM
NCI-H460 cells [3]; [15]
  IC50: 5 µM
NCI-H460 cells [3]; [16]
  IC50: 5 µM
NCI-H460 cells [3]; [17]
  IC50: 0.05 µM
[11]
  Metabolic stability (MLM) (% at 30 min): 71%
In vivo; CD-1, mouse, ip
  Cmax: 8500 ng/mL
  Tmax: 5 min
  half-life: 9.6 min
In vivo; CD-1, mouse, iv
  Cmax: 7800 ng/mL
  Tmax: 5 min
  half-life: 8.87 min
[5]
  Plasma stability (% at 30 min): 84%
NCI-H460 cells [12]; NCI-H460, read-out: IC90 H460 0.6% O2
  IC90: 600 nM
NCI-H460 cells [12]; NCI-H460, read-out: IC90 H460 Air
  IC90: 5000 nM
NCI-H460 cells [12]; NCI-H460, read-out: IC90 H460 N2
  IC90: 300 nM
HT29 [6]; [18]
  IC90: 2000 nM
HT29 cells; read-out: IC50 HT29 Anoxia
  IC50: 7.5 µM
H460 cell line; [21]
  IC50: 0.04 µM
H460 cell line; [22]
  IC50: 5 µM
H460 cell line
  HCR P: 125
HT29 [8]; [23]
  IC50: 7.5 µM
Human H460 cells; [24]
  IC90: 0.2 µM
Human H460 cells; [25]
  IC90: 10 µM
Human H460 cells
  HCR C: 50
[9]; CD-1 (Compounds 5, 23, 36), Balb/c (Compound 1), mouse, iv
  clearance: 368 mL/min/kg
[9]; CD-1, mouse, ip
  AUC: 3500 ng·h/mL
[9]; [26]
  Cmax: 8500 ng/mL
[9]; [27]
  AUC: 2300 ng·h/mL
  Cmax: 7800 ng/mL
  Vd: 3.3 L/kg
  half-life: 9 min
[9]; mouse, ip
  half-life: 9.6 min

## Cn1c([N+](=O)[O-])cnc1COP(=O)(NCCBr)NCCBr [Compound 73]
[10]
  solubility: 10000 µg/mL (≈ 22.3 mM)

## CC(OP(=O)(NCCBr)NCCBr)c1ncc([N+](=O)[O-])n1C (stereo not shown) [Compound 85]
[13]
  Cmax: 3.93 µg/mL
  Tmax: 5.00 min
  half-life: 10.0 min
NCI-H460 cells [7]; read-out: IC50 H460 Anoxia, anoxia, 2 h exposure
  IC50: 0.7 µM

## Cn1c([N+](=O)[O-])cnc1COP(=O)(N(CCCl)CCCl)N(CCCl)CCCl [Compound 155]
[10]
  solubility: < 1000 µg/mL

## COc1cccc2c1C(=O)c1c(O)c3c(c(O)c1C2=O)C[C@@](O)(C(C)=O)C[C@@H]3O[C@H]1C[C@H](N)[C@H](O)[C@H](C)O1 [Daunorubicin, reference compound]
spheroids; Homo sapiens, read-out: IC50 (μM), spheroids, daunorubicin combination experiment
  IC50: 17 µM
[1]; Homo sapiens, NCI-H460, 2 h
  IC90: 19 µM
[2]; Homo sapiens, NCI-H460, 2 h, read-out: IC90 H460 Monolayer (oxygen column not identifiable)
  IC90: 0.16 µM

Reference: US8507464B2, “Phosphoramidate alkylator prodrugs” (Threshold Pharmaceuticals, Inc., priority 2005, dated 2013)
